Assay results: PubChem BioAssay AID1626 (SRMLSC, 2009)
pIC50: −log10 of the molar value.

Tested on: M. tuberculosis H37Rv growth inhibition
Test: M. tuberculosis H37Rv growth inhibitors, H37Rv strain (AID 1626)
Settings: for IC90: measured here: IC90 against H37Rv; for CC50: measured here: Vero cell cytotoxicity

Compound | pIC50 | IC90 [µM] | CC50 [µM]
Cc1cccc(-c2ncc(CN3CCC(CO)(CCCc4ccccc4)CC3)cn2)c1 | 4.88 | 40.7 | > 40
CCCCCCc1cc2cc(C(=O)NC)c(=N)oc2cc1O | 5.33 | 7.11 | –
O=C(OCC#CCSc1nnc(-c2ccc([N+](=O)[O-])cc2)o1)c1cccs1 | > 6.71 | 1.3 | –
c1ccc(C2=Nc3ccccc3OC2)cc1 | 5.33 | 8.31 | –
CC(C)(C)c1nn(-c2ccccc2)c2[nH]c(=O)c(CNCc3ccc4c(c3)OCO4)cc12 | 4.95 | 13.8 | > 40
O=c1c2c(nc3c(-c4ccc(Cl)cc4)c[nH]n13)CCC2 | 4.89 | 25.6 | 18.9
O=c1[nH][nH]c(-c2ccccc2O)c1C(C[N+](=O)[O-])c1cccc(Cl)c1 (stereo not drawn) | 5.10 | 13.9 | 26.7
N=C1SC(c2ccccc2)C(=O)N1c1ncc(Cc2ccccc2Cl)s1 (stereo not drawn) | 4.15 | > 100 | 29.5
COc1ccc(Cn2c(SCc3ccc(C)cc3)nc3cc(OC)c(OC)cc3c2=N)cc1Cl | 5.60 | 3.09 | 3.1
COCCCN=C1NN=C(c2cc(C)n(-c3ccccc3F)c2C)CS1 | 5.28 | 7.08 | 21.7
CN(C)c1ccc(N=Nc2ccccc2C(=O)OCC(=O)NCC2CCCCC2)cc1 | 5.11 | 17.2 | –
COc1cccc(N2CCN(c3cnc4ccccc4n3)CC2)c1 | 4.60 | > 100 | –
CCCCCC(=O)c1ccc(O)cc1O | 4.20 | > 100 | –
CCN(CCCCN1C(=O)c2ccccc2C1=O)c1ccc2c(c1)C(=O)N(C)C2=O | 4.92 | > 100 | –
O=C(Nc1ccn(Cc2ccccc2F)n1)c1ccc(COc2ccc(Cl)cc2Cl)o1 | 4.47 | > 100 | > 40
CCOC(=O)c1ccc(NC(=O)COc2ccccc2CNCCc2ccccc2)cc1 | 5.32 | 6.88 | 25.2
O=[N+]([O-])c1cc(S(=O)(=O)Nc2ccccc2)ccc1N1CCN(c2ccccc2)CC1 | 4.84 | 25.5 | 28.2
CCc1cccc2c(C(=O)COC(=O)c3ccc([N+](=O)[O-])s3)c[nH]c12 | > 6.71 | 0.99 | > 40
CCCn1c(NC(=O)c2ccco2)nc2ccccc21 | 5.23 | 18.6 | > 40
COc1ccc(N=c2cc(-c3ccc(O)cc3)oc3ccccc23)cc1 | 5.24 | 9.5 | 34.3
O=C(O)/C=C/C(=O)Nc1ccc(-n2nccc2C(F)(F)F)cc1 | – | > 100 | –
CCCCC(=O)c1ccc(O)cc1 | 4.82 | > 100 | –
COc1ccc(OCC(O)Cn2c(=N)n(CCN3CCCCC3)c3ccccc32)cc1 (stereo not drawn) | 5.21 | 6.86 | > 40
CCOC(=O)c1cc(-c2csc(COc3ccccc3Cl)n2)on1 | > 6.71 | 3.52 | –
CCOC(=O)CSc1ccc(-c2nc3cc(C)c(C)cc3[nH]2)cn1 | 5.96 | 2.24 | –
COc1cc(-c2nc3ccc4ccccc4c3c3c2CCC3)cc(OC)c1O | 4.88 | 18.8 | > 40
Cc1cccc(N2CCN(C(=O)/C=C/c3cccs3)CC2C)c1 (stereo not drawn) | 4.63 | 26.5 | –

Compound | pIC50 | IC90 [µM] | CC50 [µM]
CN(C)c1ccc(C(=O)Nc2nnc(C3=COCCO3)o2)cc1 | 4.63 | 26.7 | > 40
CCOC(=O)C(C(=O)OCC)C1N=C(N)N=C2Oc3ccccc3N21 (stereo not drawn) | 4.77 | 36.7 | –
O=C(NCc1cccnc1)/C(=C/c1ccc(-c2ccc(Cl)cc2)o1)S(=O)(=O)c1ccccc1 | 5.41 | 29.7 | 24
COC(=O)CSc1ccnc2cc(Cl)ccc12 | 5.37 | 12.3 | –
O=c1cc(C(Cl)(Cl)Cl)oc2c1ccc1ccccc12 | 5.96 | 1.8 | 10.9
CCOc1ccc(N/C(C)=C\C(=O)c2ccc3c(c2)OCCO3)cc1 | 5.23 | > 100 | –
Cc1nc(N2CCN(Cc3ccc(Cl)cc3)CC2)c2oc3ccccc3c2n1 | 4.80 | 19.8 | > 40
CCc1cc2cc(C(=O)Nc3ccc(C)cc3)sc2s1 | 5.87 | 1.81 | –
CCOC(=O)c1ccc(NC(=O)NS(=O)(=O)c2ccc(C)cc2)cc1 | 5.10 | > 100 | –
Nc1nc2ccccc2n1C(=O)c1ccc(F)cc1 | 5.71 | 4.15 | > 40
CCN(CC)CCC(c1ccc2c(c1)OCO2)c1c(OC)cc(OC)c2c(-c3ccccc3)cc(=O)oc12 (stereo not drawn) | 4.87 | 21.3 | 16.5
COc1ccc(N=Cc2c(O)ccc3ccccc23)cc1 | – | > 100 | –
CCOC(=O)COc1ccc2ccccc2c1/C=C/[N+](=O)[O-] | 5.52 | 3.47 | 39.2
COC(=O)c1c(NC(=O)CC2SC(N)=NC2=O)sc2c1CCC(C(C)(C)C)C2 (stereo not drawn) | 4.78 | 24 | 35
CCCCCCCCCn1c2c(c(=N)c3c1CCC3)CCCC2 | 5.36 | 5.68 | 7.25
Cc1cc(NC(=O)C2CCCCC2)n(-c2nc3ccccc3[nH]2)n1 | 5.59 | 5.5 | 38
O=C(c1ccccc1)C1CN(Cc2ccccc2)CCC1(O)c1ccccc1 (stereo not drawn) | 4.61 | 28.2 | –
N#C/C(=C(/O)COC(=O)CCC1CCCCC1)c1nc2ccccc2[nH]1 | 4.69 | 25.1 | > 40
Cn1cnnc1SCc1ccc(-c2ccc(Br)cc2)o1 | – | > 100 | > 40
COc1cc(N=C2C(=O)N3c4c(cccc42)C(C)=CC3(C)C)cc(OC)c1 | 4.33 | > 100 | –
COc1ccc(C[C@H]2CN3C(=NC[C@@H]3Cc3ccc(O)cc3)N2CCNC(=O)c2ccc(C)c(Br)c2)cc1 | 5.36 | 6.16 | > 40
O=C(CSc1nc2cc(Cl)ccc2o1)NCCc1ccccc1 | > 6.41 | 1.09 | –
Cc1ccc(C2CC(C(F)(F)F)n3nc(C(=O)NCc4ccco4)cc3N2)cc1 (stereo not drawn) | 6.04 | 1.79 | –
Cc1ccc(-n2cc(CN(C)Cc3nccn3C)c(-c3cccc(C)c3)n2)cc1 | 5.01 | 15.9 | > 40
CCn1c(NC(=O)C2CCCCC2)nc2ccccc21 | 5.73 | > 100 | > 40
O=Cc1ccc(O)c2ncccc12 | 6.42 | 0.549 | 7.88
CCOC(=O)c1cnc(-n2nc(C)cc2C)nc1Nc1ccc(OC)cc1 | 6.19 | 1.27 | –

Compound | pIC50 | IC90 [µM] | CC50 [µM]
O=C(C[n+]1cc(-c2ccc(F)cc2)n2c1CCC2)Nc1nc(-c2ccc(F)cc2)cs1 | 4.98 | 41.1 | –
Cc1ccc(-c2csc(NC(=O)CSc3nc4ccccc4c(=O)n3CCCN(C)C)n2)cc1 | 5.12 | 9.52 | 12
Cc1ccc(NC(=O)CCn2cnc3ccccc3c2=O)cc1Cl | – | > 100 | –
O=C(CCc1ccc(Oc2cc([N+](=O)[O-])cc([N+](=O)[O-])c2)cc1)N1CCCCCC1 | 5.12 | 15.6 | 37.2
O=C(Nc1ccc(N2CCCCC2)c(Cl)c1)c1ccc(N2CCOCC2)c([N+](=O)[O-])c1 | 4.40 | > 100 | 30
O=C(/C=C/c1ccc(Cl)cc1Cl)N1CCN(c2ccc([N+](=O)[O-])c(N3CCOCC3)c2)CC1 | – | – | > 40
Cc1ccc(NS(=O)(=O)c2cc(NC(=O)c3ccc4c(c3)NC(=O)CS4)ccc2C)c(C)c1 | 4.95 | > 100 | > 40
Cc1ccc(C(=O)CC(SCC(=O)O)c2ccc([N+](=O)[O-])cc2)cc1 (stereo not drawn) | 5.10 | > 100 | 36.8
COc1ccccc1-c1nnc(NC(=O)c2ccc3ncsc3c2)o1 | 5.38 | > 100 | 24.3
COc1ccc(-c2nn(-c3ccccc3)cc2/C=N/N=C(N)N)cc1OC | 4.88 | 22.6 | 32.3
Nc1nc(F)nc2c1ncn2[C@@H]1O[C@H](CO)[C@@H](O)[C@H]1O | 5.58 | 3.95 | 0.218
COc1cc2c(cc1NCc1ccccn1)oc1ccccc12 | 5.51 | 21.4 | –
CCN(CC)CCOC(=O)c1ccc(N/C=C(/C#N)c2nc(-c3cccc(OC)c3)cs2)cc1 | 5.35 | 20.2 | 10.8
COc1ccc(NCc2nc3ccccc3n2CCOc2ccc(C)cc2)cc1 | 4.75 | 26.2 | 26.2
O=C1c2cccc3c([N+](=O)[O-])ccc(c23)C(=O)N1c1ccccn1 | 5.13 | 10.5 | 12.2
Cc1ccc2c(c1C)NC(=O)C21N2CCCC2C(C(=O)c2ccc3ccccc3c2)C12C(=O)Nc1ccccc12 (stereo not drawn) | 4.41 | > 100 | > 40
CS(=O)(=O)Nc1cccc2cccnc12 | 4.93 | 12.9 | > 40
COc1cccc2sc(Nc3nc(-c4ccccn4)cs3)nc12 | > 6.71 | < 0.195 | 1.92
C=CCOc1ccc(C=Nc2ccc(OC)cc2)c(O)c1 | – | > 100 | –
Cc1cccc(-c2cc3nc(C)c(C)c(NCCCn4ccnc4)n3n2)c1 | 5.34 | 8.03 | > 40
CCCCn1c(=O)c(C(=O)Nc2nnc(C(C)C)s2)c(O)c2ccccc21 | 6.12 | 0.841 | > 40
O=C(Nc1nnc(-c2ccccn2)o1)c1cccc(Cl)c1 | 5.28 | > 100 | > 40
CCCN(CCC)C(=O)c1cc([N+](=O)[O-])cc2c1-c1ccc([N+](=O)[O-])cc1C2=C(C#N)C#N | 5.10 | 9.91 | 33.6
O=C(Nc1ccc(F)c(Cl)c1)Nc1csc2ccccc12 | 4.26 | > 100 | 7.06
N#CC(c1ccc(Cl)cc1)c1ccc2c(C(F)(F)F)cc(C(F)(F)F)nc2n1 (stereo not drawn) | 6.24 | 0.691 | 0.904
